Experiments:
[1] = system: C2C12 muscle myotubes; test: Muscle protein synthesis in C2C12 myotubes under TNF-α stress (radiolabeled phenylalanine incorporation); format: cell-based, mouse; conditions: for protein synthesis as compared to the control: synthesis measured over following 4 hours
Method: The role of EGCg, in the form of […]® brand green tea extract that contains about 95% EGCg (available from DSM of the Netherlands), in stimulating muscle protein synthesis was evaluated in an in vitro cell-based assay using mouse C2C12 muscle myotubes. This assay measured the incorporation of radiolabeled phenylalanine into myotubes in response to various stimuli. C2C12 myoblasts passaged in FCS DMEM (Fetal Calf Serum Dulbecco's Modified Eagle's Medium) were differentiated to myotubes in HS DMEM (Horse Serum Dulbecco's Modified Eagle's Medium). The myotubes were labeled for 24 hours with L-[2,6-3H] phenylalanine prior to compound experimentation. They were then incubated with TNF-α (50 ng/ml) for 2 hours in the absence, or presence of 10 μM or 50 μM of EGCg, and protein synthesis was measured over the following 4 hours.

[2] = system: mTOR; test: mTOR activation in skeletal muscle of aged rats, 8-week diet study; format: in vivo, Sprague Dawley rats; conditions: 200 mg/kg body weight EGCg per day in AIN-93M diet, 8 weeks, rats aged 20 months; p<0.05
Method: (§1) Each of 12 aged Sprague Dawley rats (SD) rats (20 months) were chronically fed the following diets ad libitum for 8 weeks to evaluate the effects on the progression of sarcopenia in the rats:
(§2) Control diet: AIN-93M (AIN-93M diets are well known balanced diets for rodents); and
(§3) Test diet: AIN-93M+200 mg/kg body weight of EGCg.
(§4) The AIN-93M diet was supplemented with EGCG (in the form of TEAVIGO® brand green tea extract) at a concentration of 5 gm/kg diet to deliver a dose of 200 mg/kg body weight of EGCg per day to the SD rat (approximate body weight 500 gm, approximate food intake=20 gm/d) in the test diet.

[3] = system: gastrocnemius muscle; test: Gastrocnemius muscle wet weight of aged rats, 8-week diet study; format: in vivo, Sprague Dawley rats; conditions: 200 mg/kg body weight EGCg per day in diet, 8 weeks, rats aged 20 months
Method: as §1, §2, §3, §4
(§5) This increased activation was associated with increases in gastrocnemius muscle wet weight and muscle fiber cross sectional area, as shown respectively in FIGS. 3 and 4. Excised gastrocnemius muscles were weighed at the end of the 8 weeks. […] With respect to the muscle fiber cross sectional area, 8-micron muscle sections from the SD rats were dissected, mounted, and stained using hematoxylin & eosin at the end of the 8 week period. Approximately 400 fibers were measured per sample. The results are shown in FIG. 4, in which the SD rats fed the test diet (EGCg treatment) have higher cross sectional areas as compared to that of the SD rats fed the control diet (p=0.06).

[4] = system: muscle fiber; test: Muscle fiber cross sectional area of aged rats, 8-week diet study; format: in vivo, Sprague Dawley rats; conditions: 200 mg/kg body weight EGCg per day in diet, 8 weeks; p=0.06
Method: as §1, §2, §3, §4, §5

[5] = system: 19S regulatory particle ubiquitin proteasome subunits; test: Western blot of 19S regulatory particle ubiquitin proteasome subunits, 8-week diet study; format: in vivo, Sprague Dawley rats; conditions: 200 mg/kg body weight EGCg per day in diet, 8 weeks
Method: as §1, §2, §3, §4
(§6) Conversely, markers of muscle atrophy such as the 19S regulatory and 20S core particle ubiquitin proteasome subunits, MuRF1, and MAFbx were lower at the end of the 8 weeks in those SD rats fed the test diet (EGCg treatment) as compared to those fed the control diet. […] The components of the Ubiquitin Proteasome Pathway (UPP) as shown in FIGS. 5-8 were measured by western blotting in rats treated with either the test (EGCg treatment) or the control diets.

[6] = system: 20S core particle ubiquitin proteasome subunits; test: Western blot of 20S core particle ubiquitin proteasome subunits, 8-week diet study; format: in vivo, Sprague Dawley rats; conditions: 200 mg/kg body weight EGCg per day in diet, 8 weeks
Method: as §1, §2, §3, §4, §6

[7] = system: muscle ring finger protein 1 (MuRF1); test: Western blot of MuRF1, 8-week diet study; format: in vivo, Sprague Dawley rats; conditions: 200 mg/kg body weight EGCg per day in diet, 8 weeks
Method: as §1, §2, §3, §4, §6

[8] = system: muscle atrophy f-box (MAFbx); test: Western blot of MAFbx, 8-week diet study; format: in vivo, Sprague Dawley rats; conditions: 200 mg/kg body weight EGCg per day in diet, 8 weeks
Method: as §1, §2, §3, §4, §6

Compound | protein synthesis as compared to the control ([1]; 10 μM EGCg plus TNF-α (50 ng/ml, 2 hours), p<0.05) [%] | protein synthesis as compared to the control ([1]; 50 μM EGCg plus TNF-α (50 ng/ml, 2 hours), p<0.01) [%] | increase in intramuscular phosphorylated mTOR expression (mTOR activation) vs control diet [2] [%] | greater muscle mass in excised gastrocnemius muscle vs control diet [3] | muscle fiber cross sectional area vs control diet [4] | 19S regulatory particle ubiquitin proteasome subunit expression vs control diet [5] | 20S core particle ubiquitin proteasome subunit expression vs control diet [6] | MuRF1 expression vs control diet [7] | MAFbx expression vs control diet [8] | drop in protein synthesis as compared to the control ([1]; TNF-α alone, 50 ng/ml, 2 hours, p<0.05) [%]
O=C(O[C@@H]1Cc2c(O)cc(O)cc2O[C@@H]1c1cc(O)c(O)c(O)c1)c1cc(O)c(O)c(O)c1 [EGCg, epigallocatechin gallate] | 104 | 109 | 53 | approximately 5% | higher | lower | lower | lower | lower | 
tumor necrosis factor alpha [TNFα, reference compound] |  |  |  |  |  |  |  |  |  | 16

From patent US20160361291A1, “METHODS FOR INCREASING SKELETAL MUSCLE PROTEIN SYNTHESIS USING GREEN TEA EXTRACT” (ABBOTT LABORATORIES, priority 2013, published 2016)
